Results as given in patent US20200199102A1, “COMPOUNDS THAT PARTICIPATE IN COOPERATIVE BINDING AND USES THEREOF” (Revolution Medicines, Inc., priority 2017, published 2020).
Where a SMILES comes first, the peptide text is derived from it. [ ]: non-standard residue; d: D form. MeBmt = C/C=C/C[C@@H](C)[C@@H](O)[C@H](NC)C(=O)O; NMeY = CN[C@@H](Cc1ccc(O)cc1)C(=O)O; NMeF = CN[C@@H](Cc1ccccc1)C(=O)O; NMeI = CC[C@H](C)[C@H](NC)C(=O)O; NMeT = CN[C@H](C(=O)O)[C@@H](C)O; NMeL = CN[C@@H](CC(C)C)C(=O)O; dNMeV = CN[C@@H](C(=O)O)C(C)C; NMeNle = CCCC[C@H](NC)C(=O)O; Tle = CC(C)(C)[C@H](N)C(=O)O; NMeV = CN[C@H](C(=O)O)C(C)C; NMeA = CN[C@@H](C)C(=O)O; Abu = CC[C@H](N)C(=O)O; Sar = CNCC(=O)O

Target: T1, Cyclophilin A (Homo sapiens, UniProt P62937)
T1 construct: made in house
T1 sequence (P62937 whole entry, species assumed): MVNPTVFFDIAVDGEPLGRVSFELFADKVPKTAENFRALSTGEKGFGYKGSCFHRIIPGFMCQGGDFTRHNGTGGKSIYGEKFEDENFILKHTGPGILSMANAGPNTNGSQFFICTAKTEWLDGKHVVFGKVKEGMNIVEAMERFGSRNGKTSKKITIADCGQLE
Test: AlphaLISA inhibition of binding of biotinylated Cyclosporin A to FLAG tagged Cyclophilin A
Details: for % signal: AlphaLISA signal; for % signal / % inhibition of CsA binding to Cyclophilin A: test concentration not given; for IC50: read-out: IC50 value of CsA binding to Cyclophilin A
Excerpt: The binding of compounds of the invention to Cyclophilin A can be determined using the following protocol.
This protocol utilizes Perkin Elmers AlphaLISA technology platform to detect cyclosporine analogues by measuring the inhibition of binding of biotinylated Cyclosporin A to FLAG tagged Cyclophilin A.
10×TBST Buffer (Boston BioProducts IBB-181), Biotinylated Cyclosporin A (in-house), FLAG tagged Cyclophilin A (in-house); anti-FLAG Donor beads (PerkinElmer AS103) and Streptavidin Acceptor beads (PerkinElmer AL125); Compounds in DMSO (in-house), Cyclosporin A (LC Labs Cat #C-6000).
Add 20 uL of 6 nM Biotinylated CsA working stock to each well of the 96-well plate. Add 1 uL of test compound (100% DMSO) to each well of the plate using the Janus MTD head and P20 tips (except control wells). Add 1 uL of DMSO to negative control wells and 1 uL of 500 uM Cyclosporin A solution to positive control wells. In the dark, add 20 uL of combined Donor/Acceptor beads to each well. Incubate in the dark for 30 minutes at room temperature. In the dark, add 10 uL of 25 nM Flag tagged CypA working stock to each well. Incubate in the dark for 60 minutes at room temperature. Protect plate from light until reading on Biotek Synergy2 Plate Reader; Alphalisa 96-well protocol (680 excitation/615 emission).

| Compound | % signal | IC50 | % inhibition of CsA binding to Cyclophilin A |
| --- | --- | --- | --- |
| C/C=C/C[C@@H](C)[C@@H](O)[C@H]1C(=O)N[C@@H](CC)C(=O)N(C)CC(=O)N(C)[C@@H](CCCC)C(=O)N[C@@H](C(C)C)C(=O)N(C)[C@@H](CC(C)C)C(=O)N[C@@H](CC(C)C)C(=O)N[C@H](C)C(=O)N(C)[C@@H](CC(C)C)C(=O)N(C)[C@@H](CC(C)C)C(=O)N(C)[C@@H](C(C)C)C(=O)N1C [Compound C56] | 2.44% | < 2 µM | 97.56% |
| C/C=C/C[C@@H](C)[C@@H](O)[C@H]1C(=O)N[C@@H](CC)C(=O)N(C)CC(=O)N(C)[C@@H]([C@@H](C)O)C(=O)N[C@@H](C(C)C)C(=O)N(C)[C@@H](C)C(=O)N[C@@H](CC(C)C)C(=O)N[C@H](C)C(=O)N(C)[C@@H](CC(C)C)C(=O)N(C)[C@@H](CC(C)C)C(=O)N(C)[C@@H](C(C)C)C(=O)N1C [Compound C87] (cyclo([MeBmt][Abu][Sar][NMeT]V[NMeA]L[dA][NMeL][NMeL][NMeV])) | 4.53% | < 2 µM | 95.47% |
| C/C=C/C[C@@H](C)[C@@H](O)[C@H]1C(=O)N[C@@H](CC)C(=O)N(C)CC(=O)N(C)[C@@H](CC(C)C)C(=O)N[C@@H](C(C)C)C(=O)N(C)[C@@H](C)C(=O)N[C@@H](CC(C)C)C(=O)N[C@H](C)C(=O)N(C)[C@@H](CC(C)C)C(=O)N(C)[C@@H](CC(C)C)C(=O)N(C)[C@@H](C(C)C)C(=O)N1C [Compound C86] (cyclo([MeBmt][Abu][Sar][NMeL]V[NMeA]L[dA][NMeL][NMeL][NMeV])) | 17.23% | < 2 µM | 82.77% |
| C/C=C/C[C@@H](C)[C@@H](O)[C@H]1C(=O)N[C@@H](CC)C(=O)N(C)CC(=O)N(C)[C@H](C(C)C)C(=O)N[C@@H](C(C)C)C(=O)N(C)[C@@H](CC(C)C)C(=O)N[C@@H](CC)C(=O)N[C@H](C)C(=O)N(C)[C@@H](CC(C)C)C(=O)N(C)[C@@H](CC(C)C)C(=O)N(C)[C@@H](C(C)C)C(=O)N1C [Compound C103] (cyclo([Abu][Sar][dNMeV]V[NMeL][Abu][dA][NMeL][NMeL][NMeV][MeBmt])) | 13.65% | < 2 µM | 86.35% |
| C/C=C/C[C@@H](C)[C@@H](O)[C@H]1C(=O)N[C@@H](CC)C(=O)N(C)CC(=O)N(C)[C@@H](C(C)C)C(=O)N[C@@H](C(C)(C)C)C(=O)N(C)[C@@H](C)C(=O)N[C@@H](CC(C)C)C(=O)N[C@H](C)C(=O)N(C)[C@@H](CC(C)C)C(=O)N(C)[C@@H](CC(C)C)C(=O)N(C)[C@@H](C(C)C)C(=O)N1C [Compound C77] (cyclo([MeBmt][Abu][Sar][NMeV][Tle][NMeA]L[dA][NMeL][NMeL][NMeV])) | 0.44% | < 2 µM | – |
| C/C=C/C[C@@H](C)[C@@H](O)[C@H]1C(=O)N[C@@H](CC)C(=O)N(C)CC(=O)N(C)[C@@H](Cc2ccc(O)cc2)C(=O)N[C@@H](C(C)(C)C)C(=O)N(C)[C@@H](C)C(=O)N[C@@H](CC(C)C)C(=O)N[C@H](C)C(=O)N(C)[C@@H](CC(C)C)C(=O)N(C)[C@@H](CC(C)C)C(=O)N(C)[C@@H](C(C)C)C(=O)N1C [Compound C76] (cyclo([MeBmt][Abu][Sar][NMeY][Tle][NMeA]L[dA][NMeL][NMeL][NMeV])) | 5.09% | < 2 µM | 94.91% |
| C/C=C/C[C@@H](C)[C@@H](O)[C@H]1C(=O)N[C@@H](CC)C(=O)N(C)CC(=O)N(C)[C@@H](Cc2ccccc2)C(=O)N[C@@H](C(C)C)C(=O)N(C)[C@@H](C)C(=O)N[C@@H](C)C(=O)N[C@H](C)C(=O)N(C)[C@@H](CC(C)C)C(=O)N(C)[C@@H](CC(C)C)C(=O)N(C)[C@@H](C(C)C)C(=O)N1C [Compound C4] (cyclo([MeBmt][Abu][Sar][NMeF]V[NMeA]A[dA][NMeL][NMeL][NMeV])) | 4.12% | < 2 µM | 95.88% |
| C/C=C/C[C@@H](C)[C@@H](O)[C@H]1C(=O)N[C@@H](CC)C(=O)N(C)CC(=O)N(C)[C@@H](CC(C)C)C(=O)N[C@@H](C(C)(C)C)C(=O)N(C)[C@@H](C)C(=O)N[C@@H](CC(C)C)C(=O)N[C@H](C)C(=O)N(C)[C@@H](CC(C)C)C(=O)N(C)[C@@H](CC(C)C)C(=O)N(C)[C@@H](C(C)C)C(=O)N1C [Compound C74] (cyclo([MeBmt][Abu][Sar][NMeL][Tle][NMeA]L[dA][NMeL][NMeL][NMeV])) | 4.92% | < 2 µM | 95.08% |
| C/C=C/C[C@@H](C)[C@@H](O)[C@H]1C(=O)N[C@@H](CC)C(=O)N(C)CC(=O)N(C)CC(=O)N[C@@H](C(C)(C)C)C(=O)N(C)[C@@H](C)C(=O)N[C@@H](CC(C)C)C(=O)N[C@H](C)C(=O)N(C)[C@@H](CC(C)C)C(=O)N(C)[C@@H](CC(C)C)C(=O)N(C)[C@@H](C(C)C)C(=O)N1C [Compound C73] (cyclo([MeBmt][Abu][Sar][Sar][Tle][NMeA]L[dA][NMeL][NMeL][NMeV])) | 0.01% | < 2 µM | 99.99% |
| C/C=C/C[C@@H](C)[C@@H](O)[C@H]1C(=O)N[C@@H](CC)C(=O)N(C)CC(=O)N(C)[C@@H]([C@@H](C)O)C(=O)N[C@@H](C(C)(C)C)C(=O)N(C)[C@@H](C)C(=O)N[C@@H](CC(C)C)C(=O)N[C@H](C)C(=O)N(C)[C@@H](CC(C)C)C(=O)N(C)[C@@H](CC(C)C)C(=O)N(C)[C@@H](C(C)C)C(=O)N1C [Compound C75] (cyclo([MeBmt][Abu][Sar][NMeT][Tle][NMeA]L[dA][NMeL][NMeL][NMeV])) | 3.88% | < 2 µM | – |

Second part, the compound after the results:

| % signal | IC50 | % inhibition of CsA binding to Cyclophilin A | Compound |
| --- | --- | --- | --- |
| 1.04% | < 2 µM | 98.96% | C/C=C/C[C@@H](C)[C@@H](O)[C@H]1C(=O)N[C@@H](CC)C(=O)N(C)CC(=O)N(C)[C@@H](C)C(=O)N[C@@H](C(C)C)C(=O)N(C)[C@@H](CC(C)C)C(=O)N[C@@H](CC(C)C)C(=O)N[C@H](C)C(=O)N(C)[C@@H](CC(C)C)C(=O)N(C)[C@@H](CC(C)C)C(=O)N(C)[C@@H](C(C)C)C(=O)N1C [Compound C46] (cyclo([MeBmt][Abu][Sar][NMeA]V[NMeL]L[dA][NMeL][NMeL][NMeV])) |
| 5.27% | < 2 µM | 94.73% | C/C=C/C[C@@H](C)[C@@H](O)[C@H]1C(=O)N[C@@H](CC)C(=O)N(C)CC(=O)N(C)[C@@H](Cc2ccccc2)C(=O)N[C@@H](C(C)C)C(=O)N(C)CC(=O)N[C@@H](C)C(=O)N[C@H](C)C(=O)N(C)[C@@H](CC(C)C)C(=O)N(C)[C@@H](CC(C)C)C(=O)N(C)[C@@H](C(C)C)C(=O)N1C [Compound C27] (cyclo([MeBmt][Abu][Sar][NMeF]V[Sar]A[dA][NMeL][NMeL][NMeV])) |
| 9.00% | < 2 µM | 91.00% | C/C=C/C[C@@H](C)[C@@H](O)[C@H]1C(=O)N[C@@H](CC)C(=O)N(C)CC(=O)N(C)[C@@H](CCCC)C(=O)N[C@@H](C(C)C)C(=O)N(C)[C@@H](C)C(=O)N[C@@H](CC(C)C)C(=O)N[C@H](C)C(=O)N(C)[C@@H](CC(C)C)C(=O)N(C)[C@@H](CC(C)C)C(=O)N(C)[C@@H](C(C)C)C(=O)N1C [Compound C92] (cyclo([Abu][Sar][NMeNle]V[NMeA]L[dA][NMeL][NMeL][NMeV][MeBmt])) |
| 0.11% | < 2 µM | 99.89% | C/C=C/C[C@@H](C)[C@@H](O)[C@H]1C(=O)N[C@@H](CC)C(=O)N(C)CC(=O)N(C)[C@@H]([C@@H](C)CC)C(=O)N[C@@H](CC(C)C)C(=O)N(C)[C@@H](C)C(=O)N[C@@H](C)C(=O)N[C@H](C)C(=O)N(C)[C@@H](CC(C)C)C(=O)N(C)[C@@H](CC(C)C)C(=O)N(C)[C@@H](C(C)C)C(=O)N1C [Compound C9] (cyclo([MeBmt][Abu][Sar][NMeI]L[NMeA]A[dA][NMeL][NMeL][NMeV])) |
| 0.99% | < 2 µM | 99.01% | C/C=C/C[C@@H](C)[C@@H](O)[C@H]1C(=O)N[C@@H](CC)C(=O)N(C)CC(=O)N(C)[C@@H](CCCC)C(=O)N[C@@H](C(C)C)C(=O)N(C)[C@@H](CC(C)C)C(=O)N[C@@H](CC)C(=O)N[C@H](C)C(=O)N(C)[C@@H](CC(C)C)C(=O)N(C)[C@@H](CC(C)C)C(=O)N(C)[C@@H](C(C)C)C(=O)N1C [Compound C104] |
| 40.86% | < 2 µM | 59.14% | C/C=C/C[C@@H](C)[C@@H](O)[C@H]1C(=O)N[C@@H](CC)C(=O)N(C)CC(=O)N(C)[C@H](C(C)C)C(=O)N[C@@H](CC(C)C)C(=O)N(C)[C@@H](CC(C)C)C(=O)N[C@@H](CC(C)C)C(=O)N[C@H](C)C(=O)N(C)[C@@H](CC(C)C)C(=O)N(C)[C@@H](CC(C)C)C(=O)N(C)[C@@H](C(C)C)C(=O)N1C [Compound C67] (cyclo([MeBmt][Abu][Sar][dNMeV]L[NMeL]L[dA][NMeL][NMeL][NMeV])) |
| 4.28% | < 2 µM | – | C/C=C/C[C@@H](C)[C@@H](O)[C@H]1C(=O)N[C@@H](CC)C(=O)N(C)CC(=O)N(C)[C@@H](Cc2ccc(O)cc2)C(=O)N[C@@H](C(C)C)C(=O)N(C)[C@@H](CC(C)C)C(=O)N[C@@H](CC)C(=O)N[C@H](C)C(=O)N(C)[C@@H](CC(C)C)C(=O)N(C)[C@@H](CC(C)C)C(=O)N(C)[C@@H](C(C)C)C(=O)N1C [Compound C100] (cyclo([Abu][Sar][NMeY]V[NMeL][Abu][dA][NMeL][NMeL][NMeV][MeBmt])) |
